# From US20110294732A1, “ERYTHROPOLETIN COMPLEMENTATION OR REPLACEMENT” (Universite De Strasbourg, priority 2007, published 2011)
# Experiments:
# circulating RBC = assay: P50 shift of circulating RBC after oral administration in drinking water; type: in vivo, C57BL/6 mice
# Method: In experiments conducted in vivo in which ITPP was administered orally, ITPP was dissolved in drinking (not deionized) water at a 20 g/L-concentration (=27 mM, pH 7.0) and offered for drinking ad libitum. A significant shift of the P50 value of circulating RBCs was observed.
# Twelve C57BL/6 mice drank ITPP over 4 days (about 25 ml/24 hrs). Seven Control mice drank either pure water (three mice), or a solution of IHP (inositol hexaphosphate without the internal pyrophosphate rings) at the same concentration and pH as ITPP (4 mice). […] Blood was collected from the tail vein of the 12 C57BL/6 mice on day 0 (before treatment started), 1, 2, 4, 6, 7, 8, 10, 11 and 12, in order to measure P50 values. […] Oral application of ITPP caused significant right shifts of P50 (up to 31%) in mice.
# The 12 mice were observed over 12 days, the P50 values of their circulating RBC were measured almost daily. […] It appears that all mice ingesting the aqueous solution of ITPP present a shift of the P50 value of their circulating RBC, albeit with individual differences. FIG. 8 illustrates the individual differences in the P50 shift induced in the mice by ingestion of the aqueous solution of ITPP.
# hemoglobin [1] = molecular target: T1, hemoglobin (Homo sapiens, UniProt P68871); details: pH 7.4 and 37 degrees C; cited from earlier work
# [2] = Blood counts of mice after oral ingestion; type: in vivo; details: single mouse, oral in water for 4 days; day 0 count 8.9-11.8
# hemoglobin [3] = molecular target: T1, hemoglobin; details: relative to DPG; cited from earlier work
# [4] = Blood counts of mice after oral ingestion; type: in vivo; details: single mouse, oral in water for 4 days, day 7; day 0 count 8.9-11.8
# Source text: Blood from mice that ingested ITPP or IHP in water (for 4 days) or water only was collected on day 0, 7 and 11, in order to assess any differences in the blood count (and the amount of erythropoietin in the sera) of treated and control mice. […] The amount of blood from the other mice was not sufficient to determine the blood count.
# Solubility of ITPP salts = type: physicochemical
# Source text: (§1) Alternatively, ITPP-Ca can be produced by the addition of equimolar amounts of CaCl2 with an aqueous solution of ITPP-Na. The resulting mixture gives ITPP-Ca, which contains NaCl as an impurity.
# Toxicity of ITPP salts = details: compared with the calcium salt / mixed salt
# Source text: as §1
# T1 sequence (P68871 2-147 limits assumed): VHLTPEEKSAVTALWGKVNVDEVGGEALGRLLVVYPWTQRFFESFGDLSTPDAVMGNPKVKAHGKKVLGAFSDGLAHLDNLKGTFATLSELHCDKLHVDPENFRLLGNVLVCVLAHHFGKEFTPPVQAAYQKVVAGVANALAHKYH
# T1 sequence (P69905 2-142 partner limits assumed): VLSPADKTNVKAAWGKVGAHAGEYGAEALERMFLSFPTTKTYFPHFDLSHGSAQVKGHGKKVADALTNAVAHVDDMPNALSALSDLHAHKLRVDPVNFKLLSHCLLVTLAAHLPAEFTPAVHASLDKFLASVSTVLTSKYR
compound,measurement,setting,value
"O=P(O)(O)O[C@H]1[C@H](OP(=O)(O)O)[C@@H](OP(=O)(O)O)[C@H](OP(=O)(O)O)[C@@H](OP(=O)(O)O)[C@H]1OP(=O)(O)O [IHP, Inositol hexaphosphate, reference compound]",right shift of P50,"circulating RBC; oral, 20 g/L (27 mM) in drinking water over 4 days",complete absence of shift
same,"P50 day 7, %","circulating RBC; single mouse, oral in water for 4 days, day 7",3%
same,"P50 day 10, %","circulating RBC; single mouse, oral in water for 4 days, day 10",0%
same,P50 of hemoglobin increased up to,hemoglobin [1],≤ 96.4 mm Hg
same,RBC × 10^6/mm^3,[2],10.77 10^6/mm^3
same,"affinity to hemoglobin, higher than DPG",hemoglobin [3],1000 fold
same,RBC × 10^6/mm^3 (day 7),[4],9.6 10^6/mm^3
"O=P1([O-])OC2C3OP(=O)([O-])OP(=O)([O-])OC3C3OP(=O)([O-])OP(=O)([O-])OC3C2OP(=O)([O-])O1.[Ca+2].[Ca+2].[Ca+2] (stereo not drawn) [pure calcium salt of ITPP, Calcium Salt of myo-inositol 1,6:2,3:4,5-tripyrophosphate]",solubility,Solubility of ITPP salts,relatively insoluble
"O=P1([O-])OC2C3OP(=O)([O-])OP(=O)([O-])OC3C3OP(=O)([O-])OP(=O)([O-])OC3C2OP(=O)([O-])O1.[Na+].[Na+].[Na+].[Na+].[Na+].[Na+] (stereo not drawn) [pure sodium salt, myo-inositol tripyrophosphate]",toxicity,Toxicity of ITPP salts,relatively more toxic
